Results on 29 molecules are retold here after ChEMBL document CHEMBL5252562, “Synthesis, evaluation of anti-breast cancer activity in vitro of ICS II derivatives and summary of the structure-activity relationship” (Bioorg Med Chem, 2023).

A value given as a limit tells only on which side of the number the result lay.

Series [1] is described as follows: Selectivity index, ratio of IC50 for cytotoxicity against African green monkey Vero cells to IC50 for antitumor activity against human MCF7 cells. It is filed as toxicity, cell-based. The conditions noted are these: Vero cells and MCF7 cells, read-out: Ratio IC50.
The test system of series [2] is MCF7. The experiment in a line: Antitumor activity against human MCF7 cells assessed as cell viability incubated for 48 hrs by CCK8 assay. The series is classed as functional, cell-based. The note with it: MCF7, 48 h. For orientation: Tetrazolium dyes change colour on reduction, which living cells bring about.
Series [3] can be described thus: Cytotoxicity against African green monkey Vero cells. The series is classed as toxicity, cell-based. The conditions noted are these: African green monkey (Chlorocebus sabaeus).
Series [4] concerns MCF7. Description: Antitumor activity against human MCF7 cells assessed as cell viability at 20 uM incubated for 48 hrs by CCK8 assay. It is filed as functional. The note with it: read-out: Activity.
Series [5] deals with MCF7. The experiment in a line: Potency index, ratio of Icariside-II IC50 to test compound IC50 for antitumor activity against human MCF7 cells. It is filed as functional.

On to `COc1ccc(-c2oc3c(CC=C(C)C)c(OCC=C(C)C)cc(O)c3c(=O)c2O[C@@H]2O[C@@H](C)[C@H](O)[C@@H](O)[C@H]2O)cc1`, for which the selectivity ratio in series [1] is 2.85. In addition, the IC50 in series [2] came out at 2.17 µM; in series [3], 6.74 µM. For the same molecule, the viability at 20 µM in series [4] was below 50%.
As to `COc1ccc(-c2oc3c(CC=C(C)C)c(OCCO)cc(O)c3c(=O)c2O[C@@H]2O[C@@H](C)[C@H](O)[C@@H](O)[C@H]2O)cc1`, the IC50 in series [2] came out at 10.2 µM. Besides, the viability at 20 µM in series [4] was below 50%.
On the same counts, the results for `C#CCOc1cc(OCC#C)c2c(=O)c(O[C@@H]3O[C@@H](C)[C@H](O)[C@@H](O)[C@H]3O)c(-c3ccc(OC)cc3)oc2c1CC=C(C)C` are 6.24 µM and below 50%.
For the molecule `COc1ccc(-c2oc3c(CC=C(C)C)c(O)c(CN4CCCC4)c(O)c3c(=O)c2O[C@@H]2O[C@@H](C)[C@H](O)[C@@H](O)[C@H]2O)cc1`, in series [2], the half-maximal inhibitory concentration (IC50) is above 20 µM.
Regarding `COc1ccc(-c2oc3c(CC=C(C)C)c(OC(C)=O)cc(OC(C)=O)c3c(=O)c2O[C@@H]2O[C@@H](C)[C@H](OC(C)=O)[C@@H](OC(C)=O)[C@H]2OC(C)=O)cc1`, the selectivity ratio in series [1] turned out to be 4.47. In series [5], the “Ratio IC50” value turned out to be 5. The half-inhibitory concentration (IC50) in series [2] stood at 0.7 µM; in series [3], 3.13 µM. In addition, the viability at 20 µM in series [4] was below 50%.
Turning to `C=CCOc1cc(O)c2c(=O)c(O[C@@H]3O[C@@H](C)[C@H](O)[C@@H](O)[C@H]3O)c(-c3ccc(OC)cc3)oc2c1CC=C(C)C`, the selectivity ratio in series [1] was found to be 2.03. The IC50 in series [2] came to 2.89 µM; in series [3], 5.88 µM. For the same molecule, the viability at 20 µM in series [4] is below 50%.
Take `COc1ccc(-c2oc3c(CC=C(C)C)c(O)c(CN(C(C)C)C(C)C)c(O)c3c(=O)c2O[C@@H]2O[C@@H](C)[C@H](O)[C@@H](O)[C@H]2O)cc1`: the IC50 in series [2] was above 20 µM.
Consider `COc1ccc(-c2oc3c(CC=C(C)C)c(O)c(CN4CCCCC4)c(O)c3c(=O)c2O[C@@H]2O[C@@H](C)[C@H](O)[C@@H](O)[C@H]2O)cc1`, for which the IC50 in series [2] is above 20 µM.
Consider `COc1ccc(-c2oc3c(CC=C(C)C)c(OCCCN4CCNCC4)cc(O)c3c(=O)c2O[C@@H]2O[C@@H](C)[C@H](O)[C@@H](O)[C@H]2O)cc1`, for which the selectivity ratio in series [1] was above 5. The half-inhibitory concentration (IC50) was 4.07 µM in series [2] and above 20 µM in series [3]. Moreover, the viability at 20 µM in series [4] was below 50%.
`COc1ccc(-c2oc3c(CC=C(C)C)c(OCCCBr)cc(O)c3c(=O)c2O[C@@H]2O[C@@H](C)[C@H](O)[C@@H](O)[C@H]2O)cc1`: the IC50 in series [2] was 13.4 µM. The viability at 20 µM in series [4] is below 50%.
With `C=C(C)COc1c(CN2CCC(C)CC2)c(O)c2c(=O)c(O[C@@H]3O[C@@H](C)[C@H](O)[C@@H](O)[C@H]3O)c(-c3ccc(OC)cc3)oc2c1CC=C(C)C`, the IC50 in series [2] was above 20 µM.
Turning to `COc1ccc(-c2oc3c(CC=C(C)C)c(OCC4OCCO4)cc(O)c3c(=O)c2O[C@@H]2O[C@@H](C)[C@H](O)[C@@H](O)[C@H]2O)cc1`, in series [2], the IC50 amounted to 6.28 µM. The viability at 20 µM in series [4] is below 50%.
Turning to `CCN(CC)Cc1c(O)c(CC=C(C)C)c2oc(-c3ccc(OC)cc3)c(O[C@@H]3O[C@@H](C)[C@H](O)[C@@H](O)[C@H]3O)c(=O)c2c1O`, in series [2], the IC50 is above 20 µM.
Turning to `COc1ccc(-c2oc3c(CC=C(C)C)c(OCCCN4CCC(C)CC4)cc(O)c3c(=O)c2O[C@@H]2O[C@@H](C)[C@H](O)[C@@H](O)[C@H]2O)cc1`, the selectivity ratio in series [1] was determined as 3.24. For the same molecule, the half-maximal inhibitory concentration (IC50) turned out to be 3.17 µM in series [2] and 10.3 µM in series [3]. Besides, the viability at 20 µM in series [4] is below 50%.
With `CCOc1cc(O)c2c(=O)c(O[C@@H]3O[C@@H](C)[C@H](O)[C@@H](O)[C@H]3O)c(-c3ccc(OC)cc3)oc2c1CC=C(C)C`, the IC50 in series [2] came out at 8.25 µM. Also, the viability at 20 µM in series [4] was below 50%.
For the molecule `COc1ccc(-c2oc3c(CC=C(C)C)c(O)c(CN4CCN(C)CC4)c(O)c3c(=O)c2O[C@@H]2O[C@@H](C)[C@H](O)[C@@H](O)[C@H]2O)cc1`, the IC50 in series [2] was above 20 µM.
Turning to `COc1ccc(-c2oc3c(CC=C(C)C)c(OCCCCCCCCCO)cc(O)c3c(=O)c2O[C@@H]2O[C@@H](C)[C@H](O)[C@@H](O)[C@H]2O)cc1`, in series [2], the IC50 is 10.2 µM. Further, in series [4], the viability at 20 µM was below 50%.
`C#CCOc1cc(O)c2c(=O)c(O[C@@H]3O[C@@H](C)[C@H](O)[C@@H](O)[C@H]3O)c(-c3ccc(OC)cc3)oc2c1CC=C(C)C`: in series [1], the selectivity ratio came out at 2.3. Moreover, the figures for the IC50 in series [2] and in series [3] were 2.79 µM and 6.43 µM, respectively. Further, in series [4], the viability at 20 µM was below 50%.
Turning to `COc1ccc(-c2oc3c(CC=C(C)C)c(OCc4ccc([N+](=O)[O-])cc4)cc(O)c3c(=O)c2O[C@@H]2O[C@@H](C)[C@H](O)[C@@H](O)[C@H]2O)cc1`, the half-inhibitory concentration (IC50) in series [2] was above 20 µM.
Take `COc1ccc(-c2oc3c(CC=C(C)C)c(OCCCN4CCCCC4)cc(O)c3c(=O)c2O[C@@H]2O[C@@H](C)[C@H](O)[C@@H](O)[C@H]2O)cc1`: the selectivity ratio in series [1] was found to be 4.08. The IC50 in series [2] amounted to 3.79 µM; in series [3], 15.5 µM. The viability at 20 µM in series [4] was below 50%.
Regarding `C=C(C)COc1cc(O)c2c(=O)c(O[C@@H]3O[C@@H](C)[C@H](O)[C@@H](O)[C@H]3O)c(-c3ccc(OC)cc3)oc2c1CC=C(C)C`, the selectivity ratio in series [1] stood at 2.06. In addition, the IC50 in series [2] turned out to be 3.97 µM; in series [3] it was 8.18 µM. Moreover, the viability at 20 µM in series [4] was below 50%.
On to `COc1ccc(-c2oc3c(CC=C(C)C)c(O)c(CN4CCNCC4)c(O)c3c(=O)c2O[C@@H]2O[C@@H](C)[C@H](O)[C@@H](O)[C@H]2O)cc1`, for which, in series [2], the half-maximal inhibitory concentration (IC50) is above 20 µM.
Regarding `CCN(CC)CCCOc1cc(O)c2c(=O)c(O[C@@H]3O[C@@H](C)[C@H](O)[C@@H](O)[C@H]3O)c(-c3ccc(OC)cc3)oc2c1CC=C(C)C`, the selectivity ratio in series [1] stood at 1.89. In addition, the IC50 in series [2] came out at 3.26 µM; in series [3] it was 6.19 µM. Moreover, in series [4], the viability at 20 µM was below 50%.
On the same counts, the results for `COc1ccc(-c2oc3c(CC=C(C)C)c(OCCCN4CCCC4)cc(O)c3c(=O)c2O[C@@H]2O[C@@H](C)[C@H](O)[C@@H](O)[C@H]2O)cc1` are 1.99, 3.09 µM, 6.15 µM and below 50%.
As for `COc1ccc(-c2oc3c(CC=C(C)C)c(O)c(CN4CCC(C)CC4)c(O)c3c(=O)c2O[C@@H]2O[C@@H](C)[C@H](O)[C@@H](O)[C@H]2O)cc1`, the IC50 in series [2] turned out to be 17.4 µM.
Same read-out and setting: with `COc1ccc(-c2oc3c(CC=C(C)C)c(OC(=O)N(C)C)cc(O)c3c(=O)c2O[C@@H]2O[C@@H](C)[C@H](O)[C@@H](O)[C@H]2O)cc1` the figure was above 20 µM.
`COc1ccc(-c2oc3c(CC=C(C)C)c(OC(C)=O)cc(O)c3c(=O)c2O[C@@H]2O[C@@H](C)[C@H](OC(C)=O)[C@@H](OC(C)=O)[C@H]2OC(C)=O)cc1`: the selectivity ratio in series [1] amounted to 2.51. The concentration for half-maximal inhibition (IC50) was 1.54 µM in series [2] and 3.88 µM in series [3]. In addition, the viability at 20 µM in series [4] was below 50%.
Regarding `COc1ccc(-c2oc3c(CC=C(C)C)c(O)cc(O)c3c(=O)c2O[C@@H]2O[C@@H](C)[C@H](O)[C@@H](O)[C@H]2O)cc1`, in series [1], the selectivity ratio worked out at 1.24. For the same molecule, the values for the IC50 in series [2] and in series [3] were 7.52 µM and 9.34 µM, respectively.
For the molecule `CC(=O)O[C@H]1C(=O)[C@@]2(C)[C@H]([C@H](OC(=O)c3ccccc3)[C@]3(O)C[C@H](OC(=O)[C@H](O)[C@@H](NC(=O)c4ccccc4)c4ccccc4)C(C)=C1C3(C)C)[C@]1(OC(C)=O)CO[C@@H]1C[C@@H]2O` [PACLITAXEL], the IC50 in series [2] stood at 0.48 µM.

Broadly, the IC50 is the concentration that inhibits the measured activity by half.
